From ChEMBL document CHEMBL1124251, “Topical nonsteroidal antipsoriatic agents. 2. 2,3-(Alkylidenedioxy)naphthalene analogues of lonapalene” (1988) come the findings set out here.

Test [1] concerns Mus musculus. Nature of the test: Percent inhibition of arachidonic acid induced mouse ear edema at 2 mg of total dose. In kind it is functional.
The test system of test [2] is Mus musculus. The test can be described thus: Percent inhibition of arachidonic acid induced mouse ear edema at 2 mg of total dose; Insufficiently soluble in acetone. It counts as functional, organism-based.

As for `CCC(=O)Oc1c2c(c(OC(=O)CC)c3cc(Cl)ccc13)OCCO2`, the Inhibition (commonly the drop in the measured response relative to a control, in per cent) with Mus musculus [1] was found to be 30%.

`CC(C)C(=O)Oc1c2c(c(OC(=O)C(C)C)c3cc(Cl)ccc13)OCCCO2` showed an Inhibition in the test with Mus musculus [1] of 27%.

Regarding `O=C(Oc1c2c(c(OC(=O)c3ccccc3)c3cc(Cl)ccc13)OCCO2)c1ccccc1`, the inhibition entry in the test with Mus musculus [2] is listed as “Insufficiently soluble in acetone”.

In the case of `CC(C)(C)C(=O)Oc1c2c(c(OC(=O)C(C)(C)C)c3cc(Cl)ccc13)OCO2`, the Inhibition with Mus musculus [1] is 8%.

In turn, `CC(C)(C)C(=O)Oc1c2c(c(OC(=O)C(C)(C)C)c3cc(Cl)ccc13)OCCO2` displayed an Inhibition in the test with Mus musculus [1] of 41%.

Take `COc1c(OC)c(OC(C)=O)c2cc(Cl)ccc2c1OC(C)=O` [LONAPALENE]: the Inhibition in the test on Mus musculus [1] was 54%.

`CCCC(=O)Oc1c2c(c(OC(=O)CCC)c3cc(Cl)ccc13)OCCO2` yielded an Inhibition in the test on Mus musculus [1] of 26%.

Compound `CC(C)(C)C(=O)Oc1c2c(c(OC(=O)C(C)(C)C)c3cc(Cl)ccc13)OCCCO2` displayed an Inhibition in the test on Mus musculus [1] of 10%.

In the test on Mus musculus [1], `CCCC(=O)Oc1c2c(c(OC(=O)CCC)c3cc(Cl)ccc13)OCCCO2` showed an Inhibition of 35%.

In the test with Mus musculus [1], `CC(=O)Oc1c2c(c(OC(C)=O)c3cc(Cl)ccc13)OCCO2` yielded an Inhibition of 24%.

In turn, `CC(C)C(=O)Oc1c2c(c(OC(=O)C(C)C)c3cc(Cl)ccc13)OCCO2` came in with an Inhibition in the test with Mus musculus [1] of 75%.

For `CC(=O)Oc1c2c(c(OC(C)=O)c3cc(Cl)ccc13)OCO2`, the Inhibition in the test with Mus musculus [1] is 61%.

As for `CCC(=O)Oc1c2c(c(OC(=O)CC)c3cc(Cl)ccc13)OCO2`, the Inhibition in the test with Mus musculus [1] came out at 35%.

`CCC(=O)Oc1c2c(c(OC(=O)CC)c3cc(Cl)ccc13)OCCCO2` had an Inhibition in the test with Mus musculus [1] of 10%.

With `O=C(Oc1c2c(c(OC(=O)c3ccccc3)c3cc(Cl)ccc13)OCCCO2)c1ccccc1`, the inhibition entry in the test with Mus musculus [2] is on record as “Insufficiently soluble in acetone”.

`CC(=O)Oc1c2c(c(OC(C)=O)c3cc(Cl)ccc13)OCCCO2` returned an Inhibition with Mus musculus [1] of 40%.

`O=C(Oc1c2c(c(OC(=O)c3ccccc3)c3cc(Cl)ccc13)OCO2)c1ccccc1` had an Inhibition in the test with Mus musculus [1] of 10%.
